Values joined by “and” are separate entries in the source; they are usually repeats but may differ in a detail not shown here. Identical values can stand only once. “Also recorded” adds a separate entry of the source. Like-named read-outs stand apart in the source and are kept apart here.
Experiments:
[1] = after 5 days at 20 °C; cited from earlier work
mushroom tyrosinase [2] = biological target: mushroom tyrosinase (Agaricus bisporus, UniProt C7FF04); assay: biochemical; assay type: biochemical; conditions: for Tyrosinase inhibition (%): 25 μM, L-tyrosine as substrate, NI: no inhibition, means ± SEMs, 25 µM; for inhibitory potency relative to kojic acid: from IC50 values
B16F10 melanoma cells [3] = assay: Melanin content assay in α-MSH and IBMX co-stimulated B16F10 cells; assay type: cell-based, murine; conditions: for melanin contents: 5, 10, 20 μM, α-MSH and IBMX, 48 h
B16F10 melanoma cells [4] = assay: Cell viability assay: EZ-cytox assay; assay type: cell-based, murine; conditions: up to 20 µM, 24 h
mushroom tyrosinase [5] = assay: Kinetic studies of tyrosinase inhibition; assay type: biochemical; conditions: for mode of tyrosinase inhibition: Lineweaver-Burk plots, L-tyrosine as substrate
[6] = tested on: cellular tyrosinase in B16F10 melanoma cells; assay type: cell-based, murine; conditions: for cellular tyrosinase activity: 5, 10, 20 μM, α-MSH 1 μM and IBMX 200 µM, 48 h

Chain of mushroom tyrosinase (Agaricus bisporus, UniProt C7FF04) (C7FF04 1-392): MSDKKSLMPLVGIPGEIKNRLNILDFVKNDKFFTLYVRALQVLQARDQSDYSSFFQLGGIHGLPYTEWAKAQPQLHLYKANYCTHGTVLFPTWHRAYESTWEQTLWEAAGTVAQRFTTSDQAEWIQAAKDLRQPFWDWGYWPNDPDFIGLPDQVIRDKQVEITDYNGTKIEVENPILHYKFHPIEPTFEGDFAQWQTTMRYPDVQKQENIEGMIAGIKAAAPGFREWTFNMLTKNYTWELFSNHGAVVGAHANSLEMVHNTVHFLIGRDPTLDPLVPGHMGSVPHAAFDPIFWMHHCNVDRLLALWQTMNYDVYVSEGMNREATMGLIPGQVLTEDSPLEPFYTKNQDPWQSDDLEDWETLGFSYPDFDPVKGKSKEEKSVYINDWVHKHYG

SMILES	IC50 (mushroom tyrosinase [2])	melanin contents (B16F10 melanoma cells [3])	Tyrosinase inhibition (%) (mushroom tyrosinase [2])	inhibitory potency relative to kojic acid (mushroom tyrosinase [2])	cytotoxic effect (cell viability) (B16F10 melanoma cells [4])	mode of tyrosinase inhibition (mushroom tyrosinase [5])	Ki (mushroom tyrosinase [5]; inhibitor conc. 5.0 μM)	Vmax (mushroom tyrosinase [5]; inhibitor conc. 5.0 μM)	Ki (mushroom tyrosinase [5]; inhibitor conc. 10.0 μM)	Vmax (mushroom tyrosinase [5]; inhibitor conc. 10.0 μM)	Vmax (mushroom tyrosinase [5]; regardless of concentration)	cellular tyrosinase activity [6]	cellular tyrosinase inhibition compared with kojic acid at 20 μM ([6]; compound at 10 μM)	further results
OC[C@H]1O[C@@H](Oc2ccc(O)cc2)[C@H](O)[C@@H](O)[C@@H]1O [Arbutin]														decomposition [1]: 10%
O=C1/C(=C/c2ccc(O)c(O)c2)OC(=S)N1c1ccccc1 [Compound 1b, (Z)-5-(3,4-Dihydroxybenzylidene)-3-phenyl-2-thioxooxazolidin-4-one]	53.38 ± 0.39 µM													
O=C1/C(=C/c2ccc(O)cc2O)OC(=S)N1c1ccccc1 [Compound 1c, (Z)-5-(2,4-Dihydroxybenzylidene)-3-phenyl-2-thioxooxazolidin-4-one]	4.7 ± 0.4 µM	significantly and potently decreased melanin contents	78.05 ± 4.03%	5 fold and 4.9 fold	did not have a significant cytotoxic effect	competitively inhibited; also recorded: competitive inhibitors	2.51 µM	0.04 mM/min	2.19 µM	0.04 mM/min	0.04 mM/min	significantly and concentration-dependently decreased cellular tyrosinase activity	more potent than kojic acid; also recorded: inhibited cellular tyrosinase more than kojic acid	inhibition of melanin production compared with kojic acid at 20 µM (B16F10 melanoma cells [3]; compound at 10 μM): inhibited melanin production more than kojic acid; Ki (mushroom tyrosinase [5]; inhibitor conc. 2.5 μM): 3.02 µM; Vmax (mushroom tyrosinase [5]; inhibitor conc. 2.5 μM): 0.04 mM/min
O=C1/C(=C/c2ccccc2O)OC(=S)N1c1ccccc1 [Compound 1j, (Z)-5-(2-Hydroxybenzylidene)-3-phenyl-2-thioxooxazolidin-4-one]	11.2 ± 0.54 µM	significantly and potently decreased melanin contents	71.12 ± 0.71%	2 fold and 2.1 fold	did not have a significant cytotoxic effect	competitively inhibited; also recorded: competitive inhibitors	5.85 µM	0.027 mM/min	4.51 µM	0.027 mM/min	0.027 mM/min	significantly and concentration-dependently decreased cellular tyrosinase activity	more potent than kojic acid	inhibition of melanin production compared with kojic acid at 20 µM (B16F10 melanoma cells [3]; compound at 5 μM): inhibited melanin production more than kojic acid; Ki (mushroom tyrosinase [5]; inhibitor conc. 20.0 μM): 3.22 µM; Vmax (mushroom tyrosinase [5]; inhibitor conc. 20.0 μM): 0.027 mM/min; cellular tyrosinase inhibition compared with kojic acid at 20 μM ([6]; compound at 5 μM): inhibited cellular tyrosinase more than kojic acid
O=C1/C(=C/c2ccc(O)c(Br)c2)OC(=S)N1c1ccccc1 [Compound 1n, (Z)-5-(3-Bromo-4-hydroxybenzylidene)-3-phenyl-2-thioxooxazolidin-4-one]			24.96 ± 4.72%											
